Data reported in patent publication US9024018B2, “3-substituted-8-substituted-3H-imidazo[5,1-d][1,2,3,5]tetrazin-4-one compounds and their use” (Pharminox Limited, priority 2009, dated 2015).

Legend:
Format in all cases: cell-based
SNB19V = test: MTT assay for 7-day toxicity, SNB19V glioma cells (vector control, MGMT-); settings: Glioma cell, 168 h, 7 day MTT assay, glioma line SNB19V
Protocol: (§1) The cell culture techniques were carried out in a Class II microbiological safety cabinet which was swabbed with 70% IMS in distilled water before each use. Glioma cells were routinely cultured in Costar tissue culture flasks in RPMI 1640 liquid medium (containing 0.3 g/L L-glutamine and 2 g/L sodium bicarbonate) supplemented with 10% heat inactivated FBS (55-59° C.) for 1 hour to denature complement proteins which would otherwise evoke a cellular immune response resulting in cell lysis, 1% non-essential amino acids, 50 μg/mL gentamicin and 400 μg/mL G418 (vector selection reagent). Colorectal and melanoma cells were maintained in RPMI 1640 supplemented with 10% FBS. MRC-5 cells were cultured in EMEM+10% FBS, 1% pen/strep, 1% non-essential amino acids, 1% HEPES (1M) and 1% sodium bicarbonate.
(§2) Cells were grown at 37° C. in a humidified incubator in an atmosphere comprising 95% air/5% CO2. Cells were sub-cultured when growth exceeded approximately 80% confluence, normally twice weekly. The medium was aspirated from the flask and approximately 0.8 mL trypsin-EDTA 1× solution added. The cells were re-incubated at 37° C. until they had visibly detached from the flask. The cells were re-suspended in 5 mL medium and 0.5-1 mL was transferred to a new flask (25 cm^2) with 7 mL culture medium. The cells were further incubated at 37° C. To minimize phenotypic drift, cells were disposed of once they had been subcultured 30 times. New batches of cells were thawed rapidly in 37° C. water bath once taken from liquid nitrogen storage and re-suspended in 10 mL of culture medium in a 25 cm^2 flask. Cells were passaged twice to allow normal growth to resume prior to use in experiments.
(§3) Most test compounds, including temozolomide, were prepared as 100 mM stock solutions in DMSO and stored at −20° C. for not more than 6 months.
(§4) MTT Assay for 7-Day Toxicity Assay
(§5) This assay was first described in Mosmann, T., 1983, “Rapid colorimetric assay for cellular growth and survival: Application to proliferation and cytotoxicity assays”, Journal of Immunological Methods, Vol. 65, Nos. 1-2, pp. 55-63.
(§6) Glioma cell lines, SNB19 and U373, both stably transfected with MGMT (i.e., SNB19M and U373M) or their respective vector controls (i.e., SNB19V and U373V); colorectal carcinoma cell lines, HCT116, HT29, and DLD1; melanoma cell line, SKMEL-28; breast cell line, MCF-7; and normal human fetal lung fibroblast cell line, MRC-5; were used at 60-80% confluence, during the logarithmic phase of growth.
(§7) Following harvesting with trypsin/EDTA, cells in suspension were gently syringed through a 23 gauge needle to obtain a near-single cell suspension. Cells were then seeded into 96-well plates at the desired density in 180 μL culture medium if only one test compound was to be added, or in 160 μL if two test compounds were to be added in combination. Cells were allowed to attach overnight by incubation at 37° C. in 95% air/5% CO2. For the 7 day assay, the cell seeding densities for the different cell lines were as follows: SNB19V, SNB19M: 650 cells/well; U373V, U373M: 650 cells/well; SNB19VR, U373VR: 650 cells/well; HCT116, DLD-1, SKMEL-28, MRC-5, MCF-7: 400 cells/well.
(§8) The two peripheral lanes of each plate were used as blank wells (cell free) and filled with 200 μL of medium in order to minimise medium evaporation from the plate. A separate time zero (T0) plate was set up alongside other plates. Serial dilutions in tissue culture medium of a 100 mM stock of test compound were prepared immediately before each assay to ten times the final concentrations required. 20 μL was added to each well (200 μL total media per well) to achieve final concentrations of 0.5 μM, 1 μM, 5 μM, 10 μM, 50 μM, 100 μM, 500 μM, and 1000 μM. A minimum of four wells received the same test compound concentration. To control wells, including those in the T0 plate, 20 μL of medium was added. […]

U373V = test: MTT assay for 7-day toxicity, U373V glioma cells (vector control, MGMT-); settings: 7 day MTT assay, glioma line U373V
Protocol: as §1, §2, §3, §4, §5, §6, §7, §8

SNB19M = test: MTT assay for 7-day toxicity, SNB19M glioma cells (stably transfected with MGMT, MGMT+); settings: 7 day MTT assay, glioma line SNB19M
Protocol: as §1, §2, §3, §4, §5, §6, §7, §8

U373M = test: MTT assay for 7-day toxicity, U373M glioma cells (stably transfected with MGMT, MGMT+); settings: 7 day MTT assay, glioma line U373M
Protocol: as §1, §2, §3, §4, §5, §6, §7, §8

Row | Compound | GI50 (SNB19V) | GI50 (U373V; Glioma cell, 168 h) | GI50 (SNB19M; Glioma cell, 168 h) | GI50 (U373M; Glioma cell, 168 h) | GI50 (U373V) | GI50 (SNB19M) | GI50 (U373M)
1 | COCn1nnc2c(C(=O)Nc3ccccc3)ncn2c1=O [LL-002, 3-(Methoxymethyl)-4-oxo-N-phenyl-3,4-dihydroimidazo[5,1-d][1,2,3,5]tetrazine-8-carboxamide] | 55.3 µM | 36.3 µM | 43.8 µM | 52.3 µM |  |  | 
2 | COCn1nnc2c(/C=C/c3ccc(C#N)cc3)ncn2c1=O [MM-001, (E)-4-(2-(3-(Methoxymethyl)-4-oxo-3,4-dihydroimidazo[5,1-d][1,2,3,5]tetrazin-8-yl)vinyl)benzonitrile] | 9.1 µM | 7.7 µM | 8.9 µM | 8.8 µM |  |  | 
3 | COCn1nnc2c(/C=C/c3cccs3)ncn2c1=O [MM-004, (E)-3-(Methoxymethyl)-8-(2-(thiophen-2-yl)vinyl)imidazo[5,1-d][1,2,3,5]tetrazin-4(3H)-one] | 4.5 µM | 4.4 µM | 5.1 µM | 6.5 µM |  |  | 
4 | C#CCn1nnc2c(C(=N)NCC(=O)OC)ncn2c1=O [SS-001, Methyl-2-(4-oxo-3-(prop-2-ynyl)-3,4-dihydroimidazo[5,1-d][1,2,3,5]tetrazine-8-carboximidamido)acetate hydroiodide] | 59 µM | 51.2 µM | 52.7 µM | 55.1 µM |  |  | 
5 | Cn1nnc2c(C(N)=O)ncn2c1=O [TMZ, temozolomide, reference compound] | 45.6 µM | 72.9 µM | 526 µM | 395 µM |  |  | 
6 | C#CCn1nnc2c(C(N)=S)ncn2c1=O [TT-001, 4-oxo-3-(prop-2-ynyl)-3,4-dihydroimidazo[5,1-d][1,2,3,5]tetrazine-8-carbothioamide] | 63.2 µM | 42.3 µM | 54.7 µM | 53.4 µM |  |  | 
7 | Cn1nnc2c(-c3nc(-c4ccc(F)cc4)cs3)ncn2c1=O [WW-001, 8-(4-(4-Fluorophenyl)thiazol-2-yl)-3-methylimidazo[5,1-d][1,2,3,5]tetrazin-4(3H)-one] | < 45 µM | < 75 µM | < 70 µM | < 60 µM |  |  | 
8 | Cn1nnc2c(-c3nc(-c4ccccc4)cs3)ncn2c1=O [WW-002] | < 45 µM | < 75 µM | < 70 µM | < 60 µM |  |  | 
9 | CCc1csc(-c2ncn3c(=O)n(C)nnc23)n1 [WW-003, 8-(4-Ethylthiazol-2-yl)-3-methylimidazo[5,1-d][1,2,3,5]tetrazin-4(3H)-one] | < 45 µM | < 75 µM | < 70 µM | < 60 µM |  |  | 
10 | C#CCn1nnc2c(-c3nc(-c4ccccc4)cs3)ncn2c1=O [WW-004, 8-(4-phenylthiazol-2-yl)-3-(prop-2-ynyl)imidazo[5,1-d][1,2,3,5]tetrazin-4(3H)-one] | < 45 µM | < 75 µM | < 70 µM | < 60 µM |  |  | 
11 | C#CCNC(=O)c1csc(-c2ncn3c(=O)n(C)nnc23)n1 [WW-005, 2-(3-Methyl-4-oxo-3,4-dihydroimidazo[5,1-d][1,2,3,5]tetrazin-8-yl)-N-(prop-2-ynyl)thiazole-4-carboxamide] | < 45 µM | < 75 µM | < 70 µM | < 60 µM |  |  | 
12 | Cn1nnc2c(-c3nc(C#N)cs3)ncn2c1=O [WW-006, 2-(3-Methyl-4-oxo-3,4-dihydroimidazo[5,1-d][1,2,3,5]tetrazin-8-yl)thiazole-4-carbonitrile] | < 45 µM | < 75 µM |  | < 60 µM |  |  | 
13 | Cn1nnc2c(-c3nc(C(N)=O)cs3)ncn2c1=O [WW-007, 2-(3-Methyl-4-oxo-3,4-dihydroimidazo[5,1-d][1,2,3, 5]tetrazin-8-yl)thiazole-4-carboxamide] | < 45 µM | < 75 µM | < 70 µM | < 60 µM |  |  | 
14 | Cn1nnc2c(-c3nc(C(=O)NC4CC4)cs3)ncn2c1=O [WW-008, N-Cyclopropyl-2-(3-methyl-4-oxo-3,4-dihydroimidazo[5,1-d][1,2,3, 5]tetrazin-8-yl)thiazole-4-carboxamide] | < 45 µM | < 75 µM | < 70 µM | < 60 µM |  |  | 
15 | Cn1nnc2c(-c3nc(C(=O)NC(C)(C)C)cs3)ncn2c1=O [WW-009, N-tert-Butyl-2-(3-methyl-4-oxo-3,4-dihydroimidazo[5,1-d][1,2,3,5]tetrazin-8-yl)thiazole-4-carboxamide] | < 45 µM | < 75 µM |  | < 60 µM |  |  | 
16 | Cn1nnc2c(-c3nc(-c4ccsc4)cs3)ncn2c1=O [WW-012, 3-Methyl-8-(4-(thiophen-3-yl)thiazol-2-yl)imidazo[5,1-d][1,2,3,5]tetrazin-4(3H)-one] | < 45 µM | < 75 µM | < 70 µM | < 60 µM |  |  | 
17 | C#CCn1nnc2c(-c3nc(-c4cccc(Cl)c4)cs3)ncn2c1=O [WW-023, 8-(4-(3-Chlorophenyl)thiazol-2-yl)-3-(prop-2-ynyl)imidazo[5,1-d][1,2,3,5]tetrazin-4(3H)-one] | < 45 µM | < 75 µM | < 70 µM | < 60 µM |  |  | 
18 | C#CCn1nnc2c(-c3nc(-c4ccsc4)cs3)ncn2c1=O [WW-024, 3-(Prop-2-ynyl)-8-(4-(thiophen-3-yl)thiazol-2-yl)imidazo[5,1-d][1,2,3,5]tetrazin-4(3H)-one] | < 45 µM | < 75 µM | < 70 µM | < 60 µM |  |  | 
19 | C#CCn1nnc2c(-c3nc(-c4ccc(S(C)(=O)=O)cc4)cs3)ncn2c1=O [WW-025] | < 45 µM | < 75 µM | < 70 µM | < 60 µM |  |  | 
20 | C#CCn1nnc2c(-c3nc(-c4ccc5c(c4)OCO5)cs3)ncn2c1=O [WW-026] | < 45 µM | < 75 µM | < 70 µM | < 60 µM |  |  | 
21 | C#CCn1nnc2c(-c3nc(-c4nccs4)cs3)ncn2c1=O [WW-028, 8-(2,4′-Bithiazol-2′-yl)-3-(prop-2-ynyl)imidazo[5,1-d][1,2,3,5]tetrazin-4(3H)-one] | 54 µM | < 75 µM | < 70 µM | < 60 µM | 50 µM | 56.5 µM | 35.1 µM
22 | CSCn1nnc2c(-c3nc(-c4cccs4)cs3)ncn2c1=O [WW-034, 3-(methylthiomethyl)-8-(4-(thiophen-2-yl)thiazol-2-yl)imidazo[5,1-d][1,2,3,5]tetrazin-4(3H)-one] |  | < 75 µM | < 70 µM | < 60 µM |  |  | 
23 | CSCn1nnc2c(-c3nc(-c4ccsc4)cs3)ncn2c1=O [WW-035, 3-(methylthiomethyl)-8-(4-(thiophen-3-yl)thiazol-2-1/1)imidazo[5,1-d][1,2,3,5]tetrazin-4(3H)-one] |  | < 75 µM | < 70 µM | < 60 µM |  |  | 
24 | COCn1nnc2c(-c3ncc(-c4ccc(Br)cc4)o3)ncn2c1=O [WW-039] |  | < 75 µM | < 70 µM | < 60 µM |  |  | 
25 | C#CCn1nnc2c(-c3ncc(-c4ccccc4)o3)ncn2c1=O [WW-040] |  | < 75 µM | < 70 µM | < 60 µM |  |  | 
26 | COCn1nnc2c(-c3nnc(NCc4ccccc4)o3)ncn2c1=O [WW-046, 8-(5-(Benzylamino)-1,3,4-oxadiazol-2-yl)-3-(methoxymethyl)imidazo[5,1-d][1,2,3,5]tetrazin-4(3H)-one] |  | < 75 µM | < 70 µM | < 60 µM |  |  | 
